Columns and labels:
TR146 cell layer = assay: In vitro cell permeation study (Transwell); format: in vitro ADME, human; design: Kp (permeability coefficient): unit not given here; details: 40 μg sCT; for Kp (permeability coefficient) / ER (enhancement ratio): TR146 Transwell; for Kp (permeability coefficient) / Js (flux): apical to basolateral, HBSS-HEPES, 37 °C, mean ± SD n = 3; for Kp (permeability coefficient): ELISA, Kp = Js/Cd; for Js (flux): TR146 layer on 12-well Transwell, 28–30 days culture, sampling 0.5–8 h, sCT ELISA
Procedure: (§1) TR146 cell was seeded in a 12-well Transwell insert (Corning Inc., Corning, NY, USA) at a density of 5 × 10^4 cells per cm^2, and the medium was changed every 2 days for 28–30 days. The experiment was conducted from apical to basolateral and HBSS-HEPES buffer was used as media. Forty micrograms of sCT and 1.22, 6.10, and 12.2 μM of Penetratin were added to apical chamber and kept at 37 °C. 500 μL of sampling was obtained at 0.5, 1, 2, 4 and 8 h. Transepithelial electrical resistance (TEER) value was measured before and after the experiment. TEER was calculated with the following Equation (1), where Rinsert with cell, Rinsert without cell, and A were insert filter areas. The permeated amount of sCT was analyzed using an sCT ELISA kit (Phoenix Pharmaceuticals, Burlingame, CA, USA):TEER = (Rinsert with cell − Rinsert without cell) × A(1)
(§2) The flux (Js) was calculated using the following Equation (2), where t (h) was permeation time, A( cm^2 ) was permeation area, and Qr (ng) was the permeated amount of sCT, (2) Js=Qr/A·t(ng·cm^−2·h^−1) Kp was calculated with the following Equation (3), (3) Kp=Js/Cd([…]) where Js was the flux from the steady state (ng⋅cm^−2⋅h^−1) and Cd was the initial concentration in the donor chamber (ng⋅cm^−3). Finally, the enhancement ratio (ER) was obtained by dividing the Kp value of each formulation with that of the control.

TR146 cell layers = assay: TEER before and after permeability experiments; format: cell-based, human; details: for TEER Value After: after permeability experiment (8 h, 37 °C); for TEER Value After / TEER Value Before: TR146 cell layers on Transwell; for TEER Recovery: after vs before permeability experiment, TR146 cell layers; for TEER Value Before: before permeability experiment
Procedure: as §1

porcine buccal tissues = assay: Ex vivo buccal tissues permeation (Franz diffusion cell); format: in vitro ADME; details: 40 μg sCT; for Kp (permeability coefficient) / Js (flux): porcine buccal epithelium, 37 °C, mean ± SD n = 3; for Kp (permeability coefficient): Franz cell, pH 7.4 PBS, ELISA, Kp = Js/Cd; for Js (flux): Franz diffusion cell, area 2.0 cm^2, receptor 12.5 mL pH 7.4 PBS, 600 rpm, 8 h, sCT ELISA; for ER (enhancement ratio): porcine buccal tissue
Procedure: Buccal pre-treatment was performed according to the experimental method of Oh et al.. Briefly, porcine buccal tissues were immediately collected after pigs were sacrificed from a local slaughterhouse. Adipose and connective tissues were removed from buccal mucosa using surgical scissors. To obtain buccal epithelium, tissues were put in pH 7.4 PBS at 60 °C for 1 min. They were evaluated in the following in vitro permeation study.
Buccal permeability of sCT was evaluated using the Franz diffusion cell. The permeation area was 2.0 cm^2, and the volume of receptor media was 12.5 mL. The receptor was filled with pH 7.4 PBS and stirred at 600 rpm at 37 °C. The Franz diffusion cell was equilibrated for 30 min after mounting the buccal epithelium. Forty micrograms of sCT and of 1.22, 6.10 and 12.2 μM of Penetratin, of which molecular ratios were 1:0.1, 1:0.5 and 1:1 in donor part, respectively, were added to the Franz diffusion cell. Half of a milliliter of sample was obtained at different time intervals (1, 2, 4, and 8 h) from the receptor part and analyzed by a sCT ELISA kit (Phoenix Pharmaceuticals, Burlingame, CA, USA).
as §2

[1] = no reference given for the value; cited from earlier work
Procedure: Penetratin is one of the most promising CPPs. Penetratin has positively charged amino acids such as lysine and arginine, and hydrophobic amino acids. Various cargoes were delivered by overcoming the barrier of the cell membrane, but the mechanism of CPPs and Cargo delivery through the cell membrane is still unclear. There is a possible explanation. At pH 7.4, where permeation and cell uptake experiments were conducted, sCT with a pI of 10.4 and penetratin have a positive charge, so there is no ionic interaction between penetratin and sCT. Penetratin and sCT form a hydrophobic interactio ...

TR146 cells = assay: FITC-Penetratin and Alexa 647-sCT internalization in TR146 cells (flow cytometry); format: cell-based, human; details: 2 h, FACS
Procedure: For the internalization of FITC-Penetratin and Alexa 647-sCT, Alexa 647-sCT was synthesized. Alexa-647 and sCT were left at room temperature for 2 h to react, and the reaction was terminated using ammonium chloride. Purification of Alexa 647-sCT was done through dialysis.
TR146 cells were seeded in a 6-well culture plate and confocal dish at a density of 5.0 × 10^5 cells per well, and incubated for 24 h at 37 °C in 5 % CO2. To determine the concentration at which optimal intracellular uptake of Penetratin occurs, FITC-Penetratin at 2.5, 5, 10, 15, 20, 30, and 40 μM were added and incubated for 2 h.
To confirm the effect of Penetratin on intracellular uptake of sCT, 1.22, 6.10 and 12.2 μM of FITC-Penetratin were added to 40 μg of Alexa 647-sCT and incubated for 2 h at 37 °C. For the energy-independent internalization of Penetratin, 40 μg of Alexa 647-sCT and 12.2 μM of FITC-Penetratin were added and incubated for 2 h at 4 °C (energy-abolishing condition) and 37 °C (biological condition). After 2 h, imaging study with flow cytometry (BD FACSverse; Becton Dickinson, Heidelberg, Germany) and confocal laser scanning microscopy (LSM 800, Zeiss, Oberkochen, Germany) were performed.
TR146 cells were treated with a pre-determined amount of FITC-Penetratin and Alexa 647-sCT in a 6-well culture plate. […]

[2] = Penetratin 1.22 μM, Kp of formulation divided by Kp of control
[3] = Penetratin 6.10 μM, Kp of formulation divided by Kp of control

In the case of Salmon calcitonin [sCT], the “Kp (permeability coefficient)” value (TR146 cell layer; Penetratin 0 μM (control)) is reported as 0.201 ± 0.007, the “Js (flux)” value (TR146 cell layer; Penetratin 0 μM (control)) is reported as 16.091 ± 0.560 ng·cm^−2·h^−1 and the “Kp (permeability coefficient)” value (TR146 cell layer; Penetratin 1.22 μM) is reported as 0.275 ± 0.041. The “ER (enhancement ratio)” value (TR146 cell layer; [2]) was 1.4, the “Js (flux)” value (TR146 cell layer; Penetratin 1.22 μM) was 22.004 ± 3.247 ng·cm^−2·h^−1 and the “Kp (permeability coefficient)” value (TR146 cell layer; Penetratin 6.10 μM) was 0.676 ± 0.063. For the same substance, the “ER (enhancement ratio)” value (TR146 cell layer; [3]) was 3.4, the “Js (flux)” value (TR146 cell layer; Penetratin 6.10 μM) was 54.075 ± 5.053 ng·cm^−2·h^−1 and the “Kp (permeability coefficient)” value (TR146 cell layer; Penetratin 12.2 μM) was 1.115 ± 0.140. The “ER (enhancement ratio)” value (TR146 cell layer; Penetratin 12.2 μM, Kp of formulation divided by Kp of control (text: fold increase of Js/flux)) was 5.5, the “Js (flux)” value (TR146 cell layer; Penetratin 12.2 μM) was 89.190 ± 11.227 ng·cm^−2·h^−1 and the “TEER Value After” value (TR146 cell layers; 40 μg sCT + Penetratin 0 μM) was 60.48 ± 5.88 Ω·cm^2. The “TEER Value After” value (TR146 cell layers; 40 μg sCT + Penetratin 1.22 μM) was 59.73 ± 2.94 Ω·cm^2, the “TEER Value After” value (TR146 cell layers; 40 μg sCT + Penetratin 6.10 μM) was 60.11 ± 6.00 Ω·cm^2 and the “TEER Value After” value (TR146 cell layers; 40 μg sCT + Penetratin 12.2 μM) was 61.60 ± 6.62 Ω·cm^2. The “TEER Recovery” value (TR146 cell layers; 40 μg sCT + Penetratin 0 μM) was 96.31 ± 1.78%, the “TEER Recovery” value (TR146 cell layers; 40 μg sCT + Penetratin 1.22 μM) was 94.21 ± 1.90% and the “TEER Recovery” value (TR146 cell layers; 40 μg sCT + Penetratin 6.10 μM) was 98.17 ± 2.64%. The “TEER Recovery” value (TR146 cell layers; 40 μg sCT + Penetratin 12.2 μM) was 96.52 ± 4.97%, the “TEER Value Before” value (TR146 cell layers; group 40 μg sCT + Penetratin 0 μM) was 62.72 ± 5.20 Ω·cm^2 and the “TEER Value Before” value (TR146 cell layers; group 40 μg sCT + Penetratin 1.22 μM) was 63.47 ± 3.99 Ω·cm^2. The “TEER Value Before” value (TR146 cell layers; group 40 μg sCT + Penetratin 6.10 μM) was 61.23 ± 6.00 Ω·cm^2, the “TEER Value Before” value (TR146 cell layers; group 40 μg sCT + Penetratin 12.2 μM) was 63.84 ± 6.42 Ω·cm^2 and the “Kp (permeability coefficient)” value (porcine buccal tissues; Penetratin 0 μM (control)) was 0.005 ± 0.000 cm·h^−2 × 10^−3. The “Js (flux)” value (porcine buccal tissues; Penetratin 0 μM (control)) was 0.208 ± 0.018 ng·cm^−2·h^−1, the “Js (flux)” value (porcine buccal tissues; Penetratin 1.22 μM (sCT:Penetratin 1:0.1)) was 1.973 ± 0.660 ng·cm^−2·h^−1 and the “Kp (permeability coefficient)” value (porcine buccal tissues; Penetratin 1.22 μM) was 0.049 ± 0.017 cm·h^−2 × 10^−3. The “ER (enhancement ratio)” value (porcine buccal tissues; [2]) was 9.5, the “Js (flux)” value (porcine buccal tissues; Penetratin 6.10 μM (sCT:Penetratin 1:0.5)) was 6.707 ± 0.832 ng·cm^−2·h^−1 and the “Kp (permeability coefficient)” value (porcine buccal tissues; Penetratin 6.10 μM) was 0.168 ± 0.021 cm·h^−2 × 10^−3. The “ER (enhancement ratio)” value (porcine buccal tissues; [3]) was 32.2, the “Js (flux)” value (porcine buccal tissues; Penetratin 12.2 μM (sCT:Penetratin 1:1)) was 19.507 ± 1.794 ng·cm^−2·h^−1 and the “Kp (permeability coefficient)” value (porcine buccal tissues; Penetratin 12.2 μM) was 0.488 ± 0.045 cm·h^−2 × 10^−3. The “ER (enhancement ratio)” value (porcine buccal tissues; Penetratin 12.2 μM, Kp of formulation divided by Kp of control (text: fold increase of flux / permeated amount)) was 93.7 and the pI [1] was 10.4.

In the case of “FITC-Penetratin: FITC labeled Penetratin, purchased from Peptron”, the “internalization of FITC-Penetratin at 4 °C” value (TR146 cells; 12.2 μM FITC-Penetratin + 40 μg Alexa 647-sCT, 4 °C) is reported as “confirmed” and the “relative MFI of FITC-Penetratin (internalization) versus concentration” value (TR146 cells; FITC-Penetratin 2.5–40 μM, 37 °C, n = 3) is reported as “increased steeply from 2.5 to 15 μM, but increased more gradually from 15 to 40 μM”.
